Results: ChEMBL document CHEMBL1144557, “The novel C-5 aryl, alkenyl, and alkynyl substituted uracil derivatives of L-ascorbic acid: synthesis, cytostatic, and antiviral activity evaluations” (Bioorg Med Chem, 2007)
Converted amounts (≈) assume the structure as drawn.

What was measured:
Vaccinia virus [1] = assay: Antiviral activity against Vaccinia virus-induced cytopathogenicity in E6SM cells; type: functional; conditions: Orthopoxvirus vaccinia
Vaccinia virus [2] = assay: Antiviral activity against Vaccinia virus-induced cytopathogenicity in HEL cells; type: functional; conditions: Orthopoxvirus vaccinia

| SMILES | MIC (Vaccinia virus [1]) [µM] | MIC (Vaccinia virus [2]) [µM] |
| --- | --- | --- |
| O=C1O/C(=C\Cn2cc(-c3ccc(Cl)o3)c(=O)[nH]c2=O)C(OCc2ccccc2)=C1OCc1ccccc1 | > 150 | – |
| C#Cc1cn(C/C=C2\OC(=O)C(OCc3ccccc3)=C2OCc2ccccc2)c(=O)[nH]c1=O | – | > 18 |
| O=C1O/C(=C\Cn2cc(-c3ccccc3)c(=O)[nH]c2=O)C(O)=C1O | – | > 100 |
| C=C=Cc1cn(C/C=C2\OC(=O)C(OCc3ccccc3)=C2OCc2ccccc2)c(=O)[nH]c1=O | > 8 | – |
| C=CCc1cn(C/C=C2\OC(=O)C(OCc3ccccc3)=C2OCc2ccccc2)c(=O)[nH]c1=O | > 8 | – |
| C=Cc1cn(C/C=C2\OC(=O)C(OCc3ccccc3)=C2OCc2ccccc2)c(=O)[nH]c1=O | – | > 18 |
| CC#Cc1cn(C/C=C2\OC(=O)C(OCc3ccccc3)=C2OCc2ccccc2)c(=O)[nH]c1=O | > 0.4 | – |
| O=C1O/C(=C\Cn2cc(-c3ccc(Br)o3)c(=O)[nH]c2=O)C(OCc2ccccc2)=C1OCc1ccccc1 | > 70 | – |
| O=C1O/C(=C\Cn2cc(C#Cc3ccccc3)c(=O)[nH]c2=O)C(O)=C1O | – | 4 (≈ 1.41 µg/mL) |
| O=C1O/C(=C\Cn2cc(-c3ccco3)c(=O)[nH]c2=O)C(O)=C1O | – | > 100 |
| O=C1O/C(=C\Cn2cc(/C=C/Br)c(=O)[nH]c2=O)C(OCc2ccccc2)=C1OCc1ccccc1 | > 150 | – |
| CC(C)=CCc1cn(C/C=C2\OC(=O)C(OCc3ccccc3)=C2OCc2ccccc2)c(=O)[nH]c1=O | – | 4 (≈ 2 µg/mL) |
| Nc1nc2c(ncn2COCCO)c(=O)[nH]1 [ACYCLOVIR] | 300 (≈ 67.6 µg/mL) | – |
| O=c1[nH]c(=O)n([C@H]2C[C@H](O)[C@@H](CO)O2)cc1/C=C/Br [BRIVUDINE] | 2.4 (≈ 0.8 µg/mL) | – |
| NC(=O)c1ncn([C@@H]2O[C@H](CO)[C@@H](O)[C@H]2O)n1 [RIBAVIRIN] | 100 (≈ 24.4 µg/mL) | – |
| O=C1O/C(=C(\Br)Cn2c(Br)c(/C=C/Br)c(=O)[nH]c2=O)C(OCc2ccccc2)=C1OCc1ccccc1 | > 116 | – |
| C=Cc1cn(C/C=C2\OC(=O)C(O)=C2O)c(=O)[nH]c1=O | > 144 | – |
| C#Cc1cn(C/C=C2\OC(=O)C(O)=C2O)c(=O)[nH]c1=O | – | 4 (≈ 1.1 µg/mL) |
| O=C1O/C(=C\Cn2cc(C#Cc3ccccc3)c(=O)[nH]c2=O)C(OCc2ccccc2)=C1OCc1ccccc1 | > 40 | – |
| O=C1O/C(=C\Cn2cc(-c3cccs3)c(=O)[nH]c2=O)C(OCc2ccccc2)=C1OCc1ccccc1 | > 156 | – |
| Nc1nc2c(ncn2COC(CO)CO)c(=O)[nH]1 [GANCICLOVIR] | 60 (≈ 15.3 µg/mL) | – |
| O=C1O/C(=C\Cn2cc(-c3ccco3)c(=O)[nH]c2=O)C(OCc2ccccc2)=C1OCc1ccccc1 | > 6.4 | – |
| O=C1O/C(=C\Cn2cc(-c3cccs3)c(=O)[nH]c2=O)C(O)=C1O | – | > 100 |
| O=C1O/C(=C\Cn2cc(-c3ccccc3)c(=O)[nH]c2=O)C(OCc2ccccc2)=C1OCc1ccccc1 | 95 (≈ 48.3 µg/mL) | – |
